From patent publication US12077503B2, “Substituted cyclic amides and their use as herbicides” (FMC CORPORATION, priority 2015, dated 2024)

Assays:
Type in all cases: in vivo
[1] = system: wheat (Triticum aestivum); assay: Test A postemergence; conditions: Triticum aestivum, post-emergence, 240 h, 125 g ai/ha, postemergence, visual injury vs untreated controls after approx. 10 d; 0 = no effect, 100 = complete control; read-out: Wheat plant response rating (0 to 100 scale)
How it was run: (§1)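 Seeds sprayed preemergence with a directed soil spray, or plants at 2 to 10 cm height and one- to two-leaf stage sprayed postemergence, with test chemicals in a non-phytotoxic solvent mixture containing surfactant, in loam soil–sand blend. Injury rated visually against untreated controls after about 10 d in greenhouse, 0 (no effect) to 100 (complete control).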

[2] = system: ryegrass, Italian (Italian ryegrass, Lolium multiflorum); assay: Test A postemergence; conditions: Lolium multiflorum, post-emergence, 240 h, postemergence; for pest or weed control at 125 g/ha: 125 g ai/ha, visual injury vs untreated controls after approx. 10 d, 0 = no effect, 100 = complete control, read-out: Ryegrass, Italian plant response rating (0 to 100 scale); for pest or weed control at 500 g/ha: 500 g ai/ha, 0 to 100 scale, 0 is no effect, 100 is complete control, read-out: Ryegrass, Italian plant response rating
How it was run: as §1

[3] = system: giant foxtail (Setaria faberii); assay: Test A postemergence; conditions: Setaria faberi, post-emergence, 240 h, postemergence; for pest or weed control at 125 g/ha: 125 g ai/ha, visual injury vs untreated controls after approx. 10 d, 0 = no effect, 100 = complete control, read-out: Foxtail, Giant plant response rating (0 to 100 scale); for pest or weed control at 500 g/ha: 500 g ai/ha, 0 to 100 scale, 0 is no effect, 100 is complete control, read-out: Foxtail, Giant plant response rating
How it was run: as §1

[4] = system: corn (Zea mays); assay: Test A postemergence; conditions: Zea mays, post-emergence, 240 h, postemergence; for plant injury at 125 g/ha: 125 g ai/ha, visual injury vs untreated controls after approx. 10 d, 0 = no effect, 100 = complete control, read-out: Corn plant response rating (0 to 100 scale); for plant injury at 500 g/ha: 500 g ai/ha, 0 to 100 scale, 0 is no effect, 100 is complete control, read-out: Corn plant response rating
How it was run: as §1

[5] = system: blackgrass (Alopecurus myosuroides); assay: Test A postemergence; conditions: Alopecurus myosuroides, post-emergence, 240 h, postemergence; for pest or weed control at 125 g/ha: 125 g ai/ha, visual injury vs untreated controls after approx. 10 d, 0 = no effect, 100 = complete control, read-out: Blackgrass plant response rating (0 to 100 scale); for pest or weed control at 500 g/ha: 500 g ai/ha, 0 to 100 scale, 0 is no effect, 100 is complete control, read-out: Blackgrass plant response rating
How it was run: as §1

[6] = system: pigweed (Amaranthus retroflexus); assay: Test A postemergence; conditions: Amaranthus retroflexus, post-emergence, 240 h, postemergence; for pest or weed control at 125 g/ha: 125 g ai/ha, visual injury vs untreated controls after approx. 10 d, 0 = no effect, 100 = complete control, read-out: Pigweed plant response rating (0 to 100 scale); for pest or weed control at 500 g/ha: 500 g ai/ha, 0 to 100 scale, 0 is no effect, 100 is complete control, read-out: Pigweed plant response rating
How it was run: as §1

[7] = system: ragweed (common ragweed, Ambrosia elatior); assay: Test A postemergence; conditions: Ambrosia artemisiifolia, post-emergence, 240 h, postemergence; for pest or weed control at 125 g/ha: 125 g ai/ha, visual injury vs untreated controls after approx. 10 d, 0 = no effect, 100 = complete control, read-out: Ragweed plant response rating (0 to 100 scale); for pest or weed control at 500 g/ha: 500 g ai/ha, 0 to 100 scale, 0 is no effect, 100 is complete control, read-out: Ragweed plant response rating
How it was run: as §1

[8] = system: Kochia (Kochia scoparia); assay: Test A postemergence; conditions: Bassia scoparia, post-emergence, 240 h, postemergence; for pest or weed control at 125 g/ha: 125 g ai/ha, visual injury vs untreated controls after approx. 10 d, 0 = no effect, 100 = complete control, read-out: Kochia plant response rating (0 to 100 scale); for pest or weed control at 500 g/ha: 500 g ai/ha, 0 to 100 scale, 0 is no effect, 100 is complete control, read-out: Kochia plant response rating
How it was run: as §1

[9] = system: barnyardgrass (Echinochloa crus-galli); assay: Test A postemergence; conditions: Echinochloa crus-galli, post-emergence, 240 h, postemergence; for pest or weed control at 125 g/ha: 125 g ai/ha, visual injury vs untreated controls after approx. 10 d, 0 = no effect, 100 = complete control, read-out: Barnyardgrass plant response rating (0 to 100 scale); for pest or weed control at 500 g/ha: 500 g ai/ha, 0 to 100 scale, 0 is no effect, 100 is complete control, read-out: Barnyardgrass plant response rating
How it was run: as §1

[10] = system: Galium (catchweed bedstraw, Galium aparine); assay: Test A postemergence; conditions: Galium, post-emergence, 240 h, postemergence; for pest or weed control at 125 g/ha: 125 g ai/ha, visual injury vs untreated controls after approx. 10 d, 0 = no effect, 100 = complete control, read-out: Galium plant response rating (0 to 100 scale); for pest or weed control at 500 g/ha: 500 g ai/ha, 0 to 100 scale, 0 is no effect, 100 is complete control, read-out: Galium plant response rating
How it was run: as §1

[11] = system: ryegrass, Italian (Italian ryegrass, Lolium multiflorum); assay: Test A preemergence; conditions: Lolium multiflorum, pre-emergence, 240 h, preemergence, 0 to 100 scale where 0 is no effect and 100 is complete control, read-out: Ryegrass, Italian plant response rating; for pest or weed control at 125 g/ha: 125 g ai/ha, visual injury rating, approximately 10 d; for pest or weed control at 500 g/ha: 500 g ai/ha
How it was run: as §1

[12] = system: giant foxtail (Setaria faberii); assay: Test A preemergence; conditions: Setaria faberi, pre-emergence, 240 h, preemergence, 0 to 100 scale where 0 is no effect and 100 is complete control, read-out: Foxtail, Giant plant response rating; for pest or weed control at 125 g/ha: 125 g ai/ha, visual injury rating, approximately 10 d; for pest or weed control at 500 g/ha: 500 g ai/ha
How it was run: as §1

[13] = system: ragweed (common ragweed, Ambrosia elatior); assay: Test A preemergence; conditions: Ambrosia artemisiifolia, pre-emergence, 240 h, preemergence, 0 to 100 scale where 0 is no effect and 100 is complete control, read-out: Ragweed plant response rating; for pest or weed control at 125 g/ha: 125 g ai/ha, visual injury rating, approximately 10 d; for pest or weed control at 500 g/ha: 500 g ai/ha
How it was run: as §1

[14] = system: Kochia (Kochia scoparia); assay: Test A preemergence; conditions: Bassia scoparia, pre-emergence, 240 h, preemergence, 0 to 100 scale where 0 is no effect and 100 is complete control, read-out: Kochia plant response rating; for pest or weed control at 125 g/ha: 125 g ai/ha, visual injury rating, approximately 10 d; for pest or weed control at 500 g/ha: 500 g ai/ha
How it was run: as §1

[15] = system: barnyardgrass (Echinochloa crus-galli); assay: Test A preemergence; conditions: Echinochloa crus-galli, pre-emergence, 240 h, preemergence, 0 to 100 scale where 0 is no effect and 100 is complete control, read-out: Barnyardgrass plant response rating; for pest or weed control at 125 g/ha: 125 g ai/ha, visual injury rating, approximately 10 d; for pest or weed control at 500 g/ha: 500 g ai/ha
How it was run: as §1

Compound	plant injury at 125 g/ha [1] [%]	pest or weed control at 125 g/ha [2] [%]	pest or weed control at 500 g/ha [2] [%]	pest or weed control at 125 g/ha [3] [%]	pest or weed control at 500 g/ha [3] [%]	plant injury at 125 g/ha [4] [%]	plant injury at 500 g/ha [4] [%]	pest or weed control at 125 g/ha [5] [%]	pest or weed control at 500 g/ha [5] [%]	pest or weed control at 125 g/ha [6] [%]	pest or weed control at 500 g/ha [6] [%]	pest or weed control at 125 g/ha [7] [%]	pest or weed control at 500 g/ha [7] [%]	pest or weed control at 125 g/ha [8] [%]	pest or weed control at 500 g/ha [8] [%]	pest or weed control at 125 g/ha [9] [%]	pest or weed control at 500 g/ha [9] [%]	pest or weed control at 125 g/ha [10] [%]	pest or weed control at 500 g/ha [10] [%]	pest or weed control at 125 g/ha [11] [%]	also measured
CN1C[C@H](c2ccc(C(F)(F)F)cc2)[C@@H](C(=O)Nc2cccc(Cl)c2F)C1=O [Compound 1238]	0	20	60	60	80	20	40	30	50	0	30	0	20	30	50	50	80	20	50	0	pest or weed control at 500 g/ha [11]: 50%; pest or weed control at 125 g/ha [12]: 90%; pest or weed control at 500 g/ha [12]: 90%; pest or weed control at 125 g/ha [13]: 0%; pest or weed control at 500 g/ha [13]: 50%; pest or weed control at 125 g/ha [14]: 60%; pest or weed control at 500 g/ha [14]: 60%; pest or weed control at 125 g/ha [15]: 80%; pest or weed control at 500 g/ha [15]: 90%
O=C1NC[C@H](c2ccc(C(F)(F)F)cc2)C1C(=O)Nc1ccccc1CO (some centres unmarked) [Compound 1242]	0	0	0	20	50	0	0	0	0	0	0	0	0	0	0	20	40	0	20	0	pest or weed control at 500 g/ha [11]: 0%; pest or weed control at 125 g/ha [12]: 30%; pest or weed control at 500 g/ha [12]: 80%; pest or weed control at 125 g/ha [13]: 0%; pest or weed control at 500 g/ha [13]: 0%; pest or weed control at 125 g/ha [14]: 0%; pest or weed control at 500 g/ha [14]: 0%; pest or weed control at 125 g/ha [15]: 20%; pest or weed control at 500 g/ha [15]: 60%
Cc1cc([C@H]2CNC(=O)[C@@H]2C(=O)Nc2ccccc2C(F)(F)F)ccc1Cl [Compound 1245]	0	0	0	20	60	0	0	30	60	0	0	0	50	0	40	40	90	30	50	0	pest or weed control at 500 g/ha [11]: 60%; pest or weed control at 125 g/ha [12]: 80%; pest or weed control at 500 g/ha [12]: 90%; pest or weed control at 500 g/ha [13]: 20%; pest or weed control at 125 g/ha [14]: 0%; pest or weed control at 500 g/ha [14]: 20%; pest or weed control at 125 g/ha [15]: 50%; pest or weed control at 500 g/ha [15]: 80%
